Assay results: US11607398B2, “Chlorogenic acid composition and method of weight management” (Vidya Herbs, Inc., priority 2015, dated 2023)
Several values for one entry are separate records, joined by “and”; a condition that tells them apart may be missing. Identical values can stand only once.

How the values were obtained:
[1] = Reducing power assay (Fe3+ to Fe2+); assay type: biochemical; design: Reducing power activity: unit not given here
[2] = DPPH radical scavenging assay; assay type: biochemical
Description: The free radical scavenging capacity of the test sample was determined using DPPH scavenging assay. DPPH solution was prepared in 95% methanol. Freshly prepared DPPH solution was taken in test tubes and different concentration of test samples were added and incubated for 20 min. The absorbance was read at 517 nm using a spectrophotometer. Blank was prepared containing the same volume of reaction mixture without any tested samples. The percentage of scavenging was calculated using the formula: % Scavenging=Ac−As/Ac×100 Where AC was the absorbance of the control (blank) and AS was the absorbance in the presence of the composition (Braca et al., 2001).

[3] = Superoxide anion scavenging activity (NBT/NADH/PMS); assay type: biochemical
Description: Prepared all the solutions in this experiment using phosphate buffer (pH 7.4). Added 1 ml of NBT (156 μM), 1 ml of NADH (468 μM) and 3 ml of test samples to all test tubes. The reaction was started by adding 100 ml of PMS (60 μM) and incubated the mixture at 25° C. for 5 min followed by measurement of absorbance at 560 nm. The percentage of scavenging was calculated using formula: % Scavenging=Ac−As/Ac×100 Where AC was the absorbance of the control (blank) and As was the absorbance in the presence of the composition.

calf thymus DNA = experiment: Protective effect on DNA scission induced by hydroxyl radical (TBA assay); assay type: biochemical
Description: In this assay hydroxyl radicals are typically generated within a mixture of ascorbic acid, H2O2 and Fe3+-ethylenediaminetetracetic acid (EDTA); those radicals that are not scavenged by other components of the reaction mixture will eventually attack deoxyribose, thus degrading it into a series of fragments.
The experiment was conducted using calf thymus DNA. Briefly, sample was dissolved in ethanol at 1 mg/mL. 50 μl of different concentration of sample was then separately taken into mini tubes followed by addition of 400 μL of phosphate buffer (0.2 mol/L, pH 7.4). Subsequently, 50 μL DNA sodium, 50 μL H2O2, 50 μL FeCl3 and 50 μL Na2EDTA (1 mmol/L) were added. The reaction was initiated by adding 50 μL ascorbic acid (18 mmol/L) and the total volume of the reaction mixture was adjusted to 800 μL with buffer. After incubation in a water bath at 55° C. for 20 min, the reaction was terminated by adding 250 μL TCA.
The color was then developed by addition of 150 μL of TBA and heating in an oven at 105° C. for 15 min. The mixture was cooled and absorbance was measured at 532 nm against the buffer (as blank). The percent of protection against DNA damage is expressed Protective effect %=(1−A/A0)×100 Where A0 is the absorbance of the mixture without sample, and A is the absorbance of the mixture with sample. Results

[4] = system: Salmonella typhimurium TA 98; experiment: Ames Salmonella mutagenicity test (preincubation method), strain TA 98; assay type: cell-based; conditions: TA 98, +s9, positive control, concentration not given
[5] = system: Salmonella typhimurium TA 100; assay type: cell-based; conditions: TA 100, +s9, positive control, concentration not given

In the case of `O=C1O[C@H]([C@@H](O)CO)C(O)=C1O` [Ascorbic acid], the “Absorbance (reductive capability, 700 nm)” value ([1]; 100 μg/ml) is reported as 0.970, the Reducing power activity ([1]; 20 (Table 7; range 20-100 μg/ml per text)) is reported as 15.46 and the Reducing power activity ([1]; 40 (Table 7)) is reported as 16.60. For the same molecule, the Reducing power activity ([1]; 60 (Table 7)) was 16.61, the Reducing power activity ([1]; 80 (Table 7)) was 17.33 and the Reducing power activity ([1]; 100 (Table 7)) was 18.59. The “% inhibition (DPPH scavenging activity)” value ([2]; 20 μg/ml) was 83.21%, the “Absorbance @517 nm” value ([2]; 20 μg/ml) was 0.046 and the “% inhibition (DPPH scavenging activity)” value ([2]; 40 μg/ml) was 90.88%. The “Absorbance @517 nm” value ([2]; 40 μg/ml) was 0.025, the “% inhibition (DPPH scavenging activity)” value ([2]; 60 μg/ml) was 94.53% and the “Absorbance @517 nm” value ([2]; 60 μg/ml) was 0.015. The “% inhibition (DPPH scavenging activity)” value ([2]; 80 μg/ml) was 94.89%, the “Absorbance @517 nm” value ([2]; 80 μg/ml) was 0.014 and the “% inhibition (DPPH scavenging activity)” value ([2]; 100 μg/ml) was 96.72%. For the same molecule, the “Absorbance @517 nm” value ([2]; 100 μg/ml) was 0.009, the “% inhibition (DPPH scavenging activity)” value ([2]; 100 μg/ml, listed as ascorbic acid) was 96.71% and the “% inhibition (superoxide scavenging activity)” value ([3]; 20 μg/ml) was 84.80%. For the same molecule, the “Absorbance @560 nm” value ([3]; 20 μg/ml) was 0.038, the “% inhibition (superoxide scavenging activity)” value ([3]; 40 μg/ml) was 85.20% and the “Absorbance @560 nm” value ([3]; 40 μg/ml) was 0.037. The “% inhibition (superoxide scavenging activity)” value ([3]; 60 μg/ml) was 88.40%, the “Absorbance @560 nm” value ([3]; 60 μg/ml) was 0.029 and the “% inhibition (superoxide scavenging activity)” value ([3]; 80 μg/ml) was 89.20%. The “Absorbance @560 nm” value ([3]; 80 μg/ml) was 0.027, the “% inhibition (superoxide scavenging activity)” value ([3]; 100 μg/ml) was 89.60% and the “Absorbance @560 nm” value ([3]; 100 μg/ml) was 0.026.
For `COc1ccc(O)c(C(C)(C)C)c1` [BHA], the “% protective effect (DNA damage)” value (calf thymus DNA; 10 μg/ml) was 15.79 ± 0.89%, the “% protective effect (DNA damage)” value (calf thymus DNA; 20 μg/ml) was 19.25 ± 1.09% and the “% protective effect (DNA damage)” value (calf thymus DNA; 40 μg/ml) was 32.50 ± 2.12%. The “% protective effect (DNA damage)” value (calf thymus DNA; 60 μg/ml) was 39.16 ± 0.33%, the “% protective effect (DNA damage)” value (calf thymus DNA; 80 μg/ml) was 43.04 ± 0.29% and the “% protective effect (DNA damage)” value (calf thymus DNA; 100 μg/ml) was 51.37% and 51.37 ± 4.06%.
For `Nc1ccc2cc3ccccc3cc2c1` [PC 2AF, 2-aminoanthracene], the “Revertant colonies/plate (Mean n = 2 ± S.D.)” value [4] was 1560 ± 3.53 Revertant colonies/plate and the “Revertant colonies/plate (Mean n = 2 ± S.D.)” value [5] was 2737 ± 4.9 Revertant colonies/plate.
